Data taken from ChEMBL document CHEMBL1201862, “PubChem BioAssay data set” (2004).
Several values for one entry are separate records, joined by “and”; a condition that tells them apart may be missing. Equal values may be shown once.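 Cultured in 96-well plates, cells were exposed to test compound for 48 hours across five concentrations. GI50: concentration for 50% inhibition of growth.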 Activity calls are given as the source filed them. Cut-off read from the data, not from the text of the source: active = GI50 up to about 1.1 µM and inactive = higher.

Legend:
Assay in all cases: NCI anticancer screen, dose series, 48 h
Malme-3M = tested on: Malme-3M
PC-3 = tested on: PC-3
NCI-H460 = tested on: NCI-H460
IGROV-1 = tested on: IGROV-1
786-0 = tested on: 786-0
A498 = tested on: A498
A549 = tested on: A549
HL-60 = tested on: HL-60
UACC-62 = tested on: UACC-62
HOP-62 = tested on: HOP-62
HT-29 = tested on: HT-29
COLO 205 = tested on: COLO 205
RPMI-8226 = tested on: RPMI-8226
SK-OV-3 = tested on: SK-OV-3
T47D = tested on: T47D
NCI-H522 = tested on: NCI-H522
SK-MEL-5 = tested on: SK-MEL-5
SF-268 = tested on: SF-268
HOP-92 = tested on: HOP-92
TK-10 = tested on: TK-10

Cc1cc(C)nc(NS(=O)(=O)c2ccc(Nc3nncc(=O)n3N)cc2)n1
GI50 (Malme-3M): 19.2 µM (inactive)
GI50 (PC-3): 21.5 µM (inactive)
GI50 (NCI-H460): 30.1 µM (inactive)
GI50 (IGROV-1): 15.1 µM (inactive)
GI50 (786-0): 15.8 µM (inactive)
GI50 (A498): 45.9 µM (inactive)
GI50 (A549): 34.8 µM (inactive)
GI50 (HL-60): 17.4 µM (inactive)
GI50 (UACC-62): 19.8 µM (inactive)
GI50 (HOP-62): 18.7 µM (inactive)
GI50 (HT-29): 16.9 µM (inactive)
GI50 (COLO 205): 35.4 µM (inactive)
GI50 (RPMI-8226): 9.44 µM (inactive)
GI50 (SK-OV-3): 55.7 µM (inactive)
GI50 (T47D): 16.3 µM (inactive)
GI50 (NCI-H522): 12.8 µM (inactive)
GI50 (SK-MEL-5): 17 µM (inactive)
GI50 (SF-268): 20.1 µM (inactive)

C(=N\C12CC3CC(CC(C3)C1)C2)/C1CCCCC1
GI50 (Malme-3M): > 100 µM (inactive)
GI50 (PC-3): > 100 µM (inactive)
GI50 (NCI-H460): > 100 µM (inactive)
GI50 (IGROV-1): > 100 µM (inactive)
GI50 (786-0): > 100 µM (inactive)
GI50 (A498): > 100 µM (inactive)
GI50 (HOP-92): > 100 µM (inactive)
GI50 (A549): > 100 µM (inactive)
GI50 (HL-60): > 100 µM (inactive)
GI50 (UACC-62): > 100 µM (inactive)
GI50 (HOP-62): > 100 µM (inactive)
GI50 (HT-29): > 100 µM (inactive)
GI50 (COLO 205): > 100 µM (inactive)
GI50 (RPMI-8226): > 100 µM (inactive)
GI50 (TK-10): > 100 µM (inactive)
GI50 (NCI-H522): > 100 µM (inactive)
GI50 (SK-MEL-5): > 100 µM (inactive)
GI50 (SF-268): > 100 µM (inactive)

COc1cccc2c1C(=O)c1c(O)c3c(c(O)c1C2=O)C[C@@](O)(C(=O)CO)C[C@@H]3OC1CC(N)C(O)C(C)O1 (stereo not given in full)
GI50 (PC-3): 237 nM (active) and 255 nM (active)
GI50 (786-0): 102 nM (active) and 57.5 nM (active)
GI50 (A549): 74.1 nM (active) and 80.2 nM (active)
GI50 (HL-60): 60.5 nM (active) and 57 nM (active)
GI50 (HT-29): 312 nM (active) and 187 nM (active)
GI50 (RPMI-8226): 55.3 nM (active) and 43.9 nM (active)
GI50 (TK-10): 726 nM (active) and 404 nM (active)
GI50 (SK-OV-3): 0.414 µM (active)
GI50 (T47D): 94.2 nM (active) and 94 nM (active)
GI50 (SK-MEL-5): 114 nM (active) and 72.8 nM (active)

C[n+]1c2ccccc2c(N=[N+]=[N-])c2ccccc21
GI50 (Malme-3M): 5.42 µM (inactive)
GI50 (PC-3): 5.37 µM (inactive)
GI50 (NCI-H460): 4.26 µM (inactive)
GI50 (IGROV-1): 7.03 µM (inactive)
GI50 (786-0): 4.53 µM (inactive)
GI50 (A498): 6.3 µM (inactive)
GI50 (A549): 6.44 µM (inactive)
GI50 (HL-60): 9.18 µM (inactive)
GI50 (UACC-62): 7.73 µM (inactive)
GI50 (HOP-62): > 10 µM (inactive)
GI50 (HT-29): 3.93 µM (inactive)
GI50 (COLO 205): 4.29 µM (inactive)
GI50 (RPMI-8226): 5.08 µM (inactive)
GI50 (TK-10): 6.97 µM (inactive)
GI50 (SK-OV-3): > 10 µM (inactive)
GI50 (T47D): > 10 µM (inactive)
GI50 (NCI-H522): 8.87 µM (inactive)
GI50 (SK-MEL-5): > 10 µM (inactive)
GI50 (SF-268): > 10 µM (inactive)

O=C(C/N=C(\CN(c1ccccc1)c1ccccc1)Oc1c(Cl)cc(Cl)cc1Cl)N1c2ccccc2Sc2ccccc21
GI50 (Malme-3M): 31 µM (inactive)
GI50 (PC-3): 34 µM (inactive)
GI50 (NCI-H460): 56.4 µM (inactive)
GI50 (IGROV-1): 28.2 µM (inactive)
GI50 (786-0): 55.3 µM (inactive)
GI50 (HOP-92): 21.9 µM (inactive)
GI50 (A549): 54.5 µM (inactive)
GI50 (HL-60): 47.4 µM (inactive)
GI50 (UACC-62): 4.61 µM (inactive)
GI50 (HOP-62): > 100 µM (inactive)
GI50 (HT-29): 43.3 µM (inactive)
GI50 (COLO 205): 34.8 µM (inactive)
GI50 (RPMI-8226): 62.2 µM (inactive)
GI50 (TK-10): 43.9 µM (inactive)
GI50 (SK-OV-3): 29.6 µM (inactive)
GI50 (T47D): 31.9 µM (inactive)
GI50 (NCI-H522): 28.3 µM (inactive)
GI50 (SK-MEL-5): 21.4 µM (inactive)
GI50 (SF-268): 81.7 µM (inactive)

CCSc1nc(-c2cccs2)nc2ccc(I)cc12
GI50 (PC-3): > 100 µM (inactive)
GI50 (NCI-H460): > 100 µM (inactive)
GI50 (IGROV-1): > 100 µM (inactive)
GI50 (786-0): > 100 µM (inactive)
GI50 (A549): > 100 µM (inactive)
GI50 (HL-60): > 100 µM (inactive)
GI50 (UACC-62): > 100 µM (inactive)
GI50 (HOP-62): > 100 µM (inactive)
GI50 (HT-29): > 100 µM (inactive)
GI50 (COLO 205): > 100 µM (inactive)
GI50 (RPMI-8226): > 100 µM (inactive)
GI50 (TK-10): 39.6 µM (inactive)
GI50 (T47D): 1.5 µM (inactive)
GI50 (NCI-H522): > 100 µM (inactive)
GI50 (SK-MEL-5): > 100 µM (inactive)
GI50 (SF-268): > 100 µM (inactive)

O=C(CC(=O)N1N=C(N(c2ccccc2)c2ccccc2)CC1c1ccccc1)Nc1cccc(Cl)c1 (stereo not given)
GI50 (PC-3): > 100 µM (inactive)
GI50 (NCI-H460): > 100 µM (inactive)
GI50 (IGROV-1): > 100 µM (inactive)
GI50 (786-0): > 100 µM (inactive)
GI50 (HOP-92): > 100 µM (inactive)
GI50 (A549): > 100 µM (inactive)
GI50 (HL-60): > 100 µM (inactive)
GI50 (UACC-62): > 100 µM (inactive)
GI50 (HOP-62): > 100 µM (inactive)
GI50 (HT-29): > 100 µM (inactive)
GI50 (COLO 205): > 100 µM (inactive)
GI50 (RPMI-8226): > 100 µM (inactive)
GI50 (TK-10): > 100 µM (inactive)
GI50 (SK-OV-3): > 100 µM (inactive)
GI50 (T47D): > 100 µM (inactive)
GI50 (NCI-H522): > 100 µM (inactive)
GI50 (SK-MEL-5): > 100 µM (inactive)
GI50 (SF-268): > 100 µM (inactive)

C=C1C(=O)O[C@H]2C1C[C@@H](OC(C)=O)/C(C)=C/CC[C@@]1(C)O[C@H]21 (stereo not given in full)
GI50 (Malme-3M): 4.36 µM (inactive)
GI50 (PC-3): 15.3 µM (inactive)
GI50 (NCI-H460): 33.3 µM (inactive)
GI50 (IGROV-1): 7.67 µM (inactive)
GI50 (786-0): 11.5 µM (inactive)
GI50 (HOP-92): 16 µM (inactive)
GI50 (A549): 49.7 µM (inactive)
GI50 (UACC-62): 3.05 µM (inactive)
GI50 (HOP-62): 17.6 µM (inactive)
GI50 (HT-29): 20.1 µM (inactive)
GI50 (COLO 205): 3.7 µM (inactive)
GI50 (RPMI-8226): 2.27 µM (inactive)
GI50 (TK-10): 6.12 µM (inactive)
GI50 (SK-OV-3): 26.9 µM (inactive)
GI50 (T47D): 7.1 µM (inactive)
GI50 (NCI-H522): 2.26 µM (inactive)
GI50 (SK-MEL-5): 5.53 µM (inactive)

Cc1cc2c3c([nH]c2c2ccnc(C)c12)CCCC3
GI50 (Malme-3M): 1.29 µM (inactive)
GI50 (PC-3): 3.78 µM (inactive)
GI50 (NCI-H460): 1.94 µM (inactive)
GI50 (IGROV-1): 2.23 µM (inactive)
GI50 (786-0): 1.68 µM (inactive)
GI50 (HOP-92): 2.6 µM (inactive)
GI50 (A549): 2.12 µM (inactive)
GI50 (HL-60): 1.69 µM (inactive)
GI50 (UACC-62): 1.77 µM (inactive)
GI50 (HOP-62): 1.79 µM (inactive)
GI50 (HT-29): 2.46 µM (inactive)
GI50 (COLO 205): 1.69 µM (inactive)
GI50 (RPMI-8226): 1.84 µM (inactive)
GI50 (TK-10): 2.33 µM (inactive)
GI50 (SK-OV-3): 1.85 µM (inactive)
GI50 (T47D): 2.15 µM (inactive)
GI50 (SK-MEL-5): 1.55 µM (inactive)
GI50 (SF-268): 3.75 µM (inactive)

COc1ccc2c(c1)N=C1CSC(c3cccc(Br)c3)N1C2 (stereo not given)
GI50 (Malme-3M): 18 µM (inactive)
GI50 (PC-3): 11.5 µM (inactive)
GI50 (NCI-H460): 7.62 µM (inactive)
GI50 (IGROV-1): 18.6 µM (inactive)
GI50 (786-0): 17.4 µM (inactive)
GI50 (HOP-92): 16.7 µM (inactive)
GI50 (A549): 16.6 µM (inactive)
GI50 (HL-60): 9.51 µM (inactive)
GI50 (UACC-62): 15.2 µM (inactive)
GI50 (HOP-62): 22.8 µM (inactive)
GI50 (HT-29): 14.8 µM (inactive)
GI50 (COLO 205): 17.4 µM (inactive)
GI50 (RPMI-8226): 3.72 µM (inactive)
GI50 (TK-10): 16 µM (inactive)
GI50 (SK-OV-3): 21.3 µM (inactive)
GI50 (T47D): 24 µM (inactive)
GI50 (NCI-H522): 14.4 µM (inactive)
GI50 (SK-MEL-5): 10.4 µM (inactive)
GI50 (SF-268): 28.9 µM (inactive)

Cc1c(C#N)c(N)n(C2OCC(O)C(O)C2O)c(=S)c1C#N (stereo not given)
GI50 (Malme-3M): > 100 µM (inactive)
GI50 (PC-3): > 100 µM (inactive)
GI50 (NCI-H460): > 100 µM (inactive)
GI50 (IGROV-1): > 100 µM (inactive)
GI50 (786-0): > 100 µM (inactive)
GI50 (A498): > 100 µM (inactive)
GI50 (A549): > 100 µM (inactive)
GI50 (HL-60): > 100 µM (inactive)
GI50 (UACC-62): > 100 µM (inactive)
GI50 (HOP-62): > 100 µM (inactive)
GI50 (HT-29): > 100 µM (inactive)
GI50 (RPMI-8226): > 100 µM (inactive)
GI50 (TK-10): > 100 µM (inactive)
GI50 (SK-OV-3): > 100 µM (inactive)
GI50 (T47D): > 100 µM (inactive)
GI50 (NCI-H522): > 100 µM (inactive)
GI50 (SK-MEL-5): > 100 µM (inactive)
GI50 (SF-268): > 100 µM (inactive)
